Organism: Rattus norvegicus
Experiment: DrugMatrix - Regimen: Daily Repeat
Type: toxicity, organism-based, Sprague-Dawley
Set-up: regimen Daily Repeat, gender Male, age 6-8 weeks
Settings: in vivo, po, 17.5 mg/kg, route oral GAVAGE, dose level Low, vehicle 100 % SALINE; for ABSOLUTE BASOPHIL / ABSOLUTE EOSINOPHIL / ABSOLUTE LYMPHOCYTE / ABSOLUTE MONOCYTE / ABSOLUTE SEGMENTED NEUTROPHIL / BASOPHIL / EOSINOPHIL / ERYTHROCYTE COUNT / HEMATOCRIT / HEMOGLOBIN / LEUKOCYTE COUNT / LYMPHOCYTE / MEAN CORPUSCULAR HEMOGLOBIN / MEAN CORPUSCULAR HEMOGLOBIN CONCENTRATION / MEAN CORPUSCULAR VOLUME / MONOCYTE / NEUTROPHIL / NUCLEATED RED BLOOD CELLS / PLATELET COUNT: tissue Blood; for ALANINE AMINOTRANSFERASE / ALBUMIN / ALKALINE PHOSPHATASE / ASPARTATE AMINOTRANSFERASE / BLOOD UREA NITROGEN / CARBON DIOXIDE / CHLORIDE / CHOLESTEROL / CREATINE PHOSPHOKINASE / CREATININE / GLUCOSE / LACTATE DEHYDROGENASE / LIPASE / PHOSPHORUS / POTASSIUM / SODIUM / TOTAL BILIRUBIN / TOTAL PROTEIN / URIC ACID: tissue Plasma

For `NC(=O)C[S+]([O-])C(c1ccccc1)c1ccccc1` (stereo unspecified) [MODAFINIL], the “ABSOLUTE BASOPHIL” value (72 h, time 3 day) was 0 CELLS/uL, the “ABSOLUTE EOSINOPHIL” value (72 h, time 3 day) was 0 CELLS/uL and the “ABSOLUTE LYMPHOCYTE” value (72 h, time 3 day) was 8269.33 CELLS/uL. For the same compound, the “ABSOLUTE MONOCYTE” value (72 h, time 3 day) was 22 CELLS/uL, the “ABSOLUTE SEGMENTED NEUTROPHIL” value (72 h, time 3 day) was 608.67 CELLS/uL and the BASOPHIL (72 h, time 3 day) was 0%. For the same compound, the EOSINOPHIL (72 h, time 3 day) was 0%, the “ERYTHROCYTE COUNT” value (72 h, time 3 day) was 5.35 x10E6/uL and the HEMATOCRIT (72 h, time 3 day) was 32.93%. The HEMOGLOBIN (72 h, time 3 day) was 12.87 G/DL, the “LEUKOCYTE COUNT” value (72 h, time 3 day) was 8.9 x10E3/uL and the LYMPHOCYTE (72 h, time 3 day) was 93%. The “MEAN CORPUSCULAR HEMOGLOBIN” value (72 h, time 3 day) was 24.07 pg, the “MEAN CORPUSCULAR HEMOGLOBIN CONCENTRATION” value (72 h, time 3 day) was 39.03 G/DL and the “MEAN CORPUSCULAR VOLUME” value (72 h, time 3 day) was 61.67 fL. For the same compound, the MONOCYTE (72 h, time 3 day) was 0.33%, the NEUTROPHIL (72 h, time 3 day) was 6.67% and the “NUCLEATED RED BLOOD CELLS” value (72 h, time 3 day) was 0 /100WBC. For the same compound, the “PLATELET COUNT” value (72 h, time 3 day) was 1018.67 x10E3/uL, the “ALANINE AMINOTRANSFERASE” value (72 h, time 3 day) was 51.33 u/L and the ALBUMIN (72 h, time 3 day) was 4.2 G/DL. The “ALKALINE PHOSPHATASE” value (72 h, time 3 day) was 290.33 u/L, the “ASPARTATE AMINOTRANSFERASE” value (72 h, time 3 day) was 79.67 u/L and the “BLOOD UREA NITROGEN” value (72 h, time 3 day) was 14 mg/dL. For the same compound, the “CARBON DIOXIDE” value (72 h, time 3 day) was 27.67 mmol/L, the CHLORIDE (72 h, time 3 day) was 100.33 MEQ/L and the CHOLESTEROL (72 h, time 3 day) was 66 mg/dL. The “CREATINE PHOSPHOKINASE” value (72 h, time 3 day) was 304.67 u/L, the CREATININE (72 h, time 3 day) was 0.22 mg/dL and the GLUCOSE (72 h, time 3 day) was 157.67 mg/dL. For the same compound, the “LACTATE DEHYDROGENASE” value (72 h, time 3 day) was 92.67 u/L, the LIPASE (72 h, time 3 day) was 11 u/L and the PHOSPHORUS (72 h, time 3 day) was 11.77 mg/dL. The POTASSIUM (72 h, time 3 day) was 5.21 MEQ/L, the SODIUM (72 h, time 3 day) was 144.33 MEQ/L and the “TOTAL BILIRUBIN” value (72 h, time 3 day) was 0.17 mg/dL. For the same compound, the “TOTAL PROTEIN” value (72 h, time 3 day) was 5.93 G/DL, the “URIC ACID” value (72 h, time 3 day) was 0.7 mg/dL and the “ABSOLUTE BASOPHIL” value (120 h, time 5 day) was 0 CELLS/uL. For the same compound, the “ABSOLUTE EOSINOPHIL” value (120 h, time 5 day) was 0 CELLS/uL, the “ABSOLUTE LYMPHOCYTE” value (120 h, time 5 day) was 7020.33 CELLS/uL and the “ABSOLUTE MONOCYTE” value (120 h, time 5 day) was 0 CELLS/uL. The “ABSOLUTE SEGMENTED NEUTROPHIL” value (120 h, time 5 day) was 813 CELLS/uL, the BASOPHIL (120 h, time 5 day) was 0% and the EOSINOPHIL (120 h, time 5 day) was 0%. For the same compound, the “ERYTHROCYTE COUNT” value (120 h, time 5 day) was 5.19 x10E6/uL, the HEMATOCRIT (120 h, time 5 day) was 32.03% and the HEMOGLOBIN (120 h, time 5 day) was 12.9 G/DL. For the same compound, the “LEUKOCYTE COUNT” value (120 h, time 5 day) was 7.83 x10E3/uL, the LYMPHOCYTE (120 h, time 5 day) was 90% and the “MEAN CORPUSCULAR HEMOGLOBIN” value (120 h, time 5 day) was 24.93 pg. The “MEAN CORPUSCULAR HEMOGLOBIN CONCENTRATION” value (120 h, time 5 day) was 40.27 G/DL, the “MEAN CORPUSCULAR VOLUME” value (120 h, time 5 day) was 61.83 fL and the MONOCYTE (120 h, time 5 day) was 0%. The NEUTROPHIL (120 h, time 5 day) was 10%, the “NUCLEATED RED BLOOD CELLS” value (120 h, time 5 day) was 0 /100WBC and the “PLATELET COUNT” value (120 h, time 5 day) was 1105.67 x10E3/uL. The “ALANINE AMINOTRANSFERASE” value (120 h, time 5 day) was 54.33 u/L, the ALBUMIN (120 h, time 5 day) was 4.27 G/DL and the “ALKALINE PHOSPHATASE” value (120 h, time 5 day) was 413 u/L. For the same compound, the “ASPARTATE AMINOTRANSFERASE” value (120 h, time 5 day) was 84 u/L, the “BLOOD UREA NITROGEN” value (120 h, time 5 day) was 11 mg/dL and the “CARBON DIOXIDE” value (120 h, time 5 day) was 33.67 mmol/L. For the same compound, the CHLORIDE (120 h, time 5 day) was 98.33 MEQ/L, the CHOLESTEROL (120 h, time 5 day) was 73 mg/dL and the “CREATINE PHOSPHOKINASE” value (120 h, time 5 day) was 441.67 u/L. The CREATININE (120 h, time 5 day) was 0.39 mg/dL, the GLUCOSE (120 h, time 5 day) was 133 mg/dL and the “LACTATE DEHYDROGENASE” value (120 h, time 5 day) was 119.33 u/L. It also gave an LIPASE (120 h, time 5 day) of 10.67 u/L, a PHOSPHORUS (120 h, time 5 day) of 10.57 mg/dL and a POTASSIUM (120 h, time 5 day) of 6.11 MEQ/L. The SODIUM (120 h, time 5 day) was 143.73 MEQ/L, the “TOTAL BILIRUBIN” value (120 h, time 5 day) was 0.13 mg/dL and the “TOTAL PROTEIN” value (120 h, time 5 day) was 6.13 G/DL. For the same compound, the “URIC ACID” value (120 h, time 5 day) was 0.7 mg/dL.
